Laboratory results reported in patent US6288082A, “Substituted 3-cyanoquinolines” (priority 1999, dated 2001).
Values after ≈ are worked out from the molar mass of the structure shown. Values joined by “and” are separate entries in the source; they are usually repeats but may differ in a detail not shown here. Equal entries are not always repeated.

Tests used:
[1] = molecular target: T1, Epidermal Growth Factor Receptor Kinase (EGF-R) (Homo sapiens, UniProt P00533); test: Inhibition of Epidermal Growth Factor Receptor Kinase (EGF-R) Using Recombinant Enzyme; assay type: biochemical; conditions: for IC50: recombinant enzyme, RR-SRC peptide substrate
T1 construct: EGFR cDNA encoding amino acids 645-1186 preceded by Met-Ala-(His)6; Met-Ala-(His)6 (N); made in house; host or cells: Sf9 insect cells, recombinant baculovirus vHcEGFR52
T1 sequence (P00533 669-1210): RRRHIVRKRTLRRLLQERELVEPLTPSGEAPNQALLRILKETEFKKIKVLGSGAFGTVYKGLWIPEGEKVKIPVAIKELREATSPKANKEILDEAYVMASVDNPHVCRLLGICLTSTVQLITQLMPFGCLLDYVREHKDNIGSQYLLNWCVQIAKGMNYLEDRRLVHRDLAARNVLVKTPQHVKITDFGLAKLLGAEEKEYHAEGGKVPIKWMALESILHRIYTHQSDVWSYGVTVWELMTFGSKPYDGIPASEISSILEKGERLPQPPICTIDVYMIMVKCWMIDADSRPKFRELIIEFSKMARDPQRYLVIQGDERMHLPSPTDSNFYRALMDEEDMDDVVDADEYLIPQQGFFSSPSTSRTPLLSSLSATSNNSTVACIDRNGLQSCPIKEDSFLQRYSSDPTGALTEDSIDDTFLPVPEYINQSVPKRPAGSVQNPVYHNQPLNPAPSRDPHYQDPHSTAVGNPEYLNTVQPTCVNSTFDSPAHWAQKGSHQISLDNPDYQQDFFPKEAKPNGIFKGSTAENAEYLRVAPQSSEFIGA
Experimental: Inhibition of Epidermal Growth Factor Receptor Kinase (EGF-R) Using Recombinant Enzyme
Representative test compounds were evaluated for their ability to inhibit the phosphorylation of the tyrosine residue of a peptide substrate catalyzed by the enzyme epidermal growth factor receptor kinase. The peptide substrate (RR-SRC) has the sequence arg-arg-leu-ile-glu-asp-ala-glu-tyr-ala-ala-arg-gly. The enzyme used in this test procedure is the His-tagged cytoplasmic domain of EGFR. A recombinant baculovirus (vHcEGFR52) was constructed containing the EGFR cDNA encoding amino acids 645-1186 preceded by Met-Ala-(His)6. Sf9 cells in 100 mm plates were infected at an moi of 10 pfu/cell and cells were harvested 48 h post infection. A cytoplasmic extract was prepared using 1% Triton X-100 and applied to Ni-NTA column. After washing the column with 20 mM imidazole, HcEGFR was eluted with 250 mM imidazole (in 50 mM Na2 HPO4, pH 8.0, 300 mM NaCl). Fractions collected were dialyzed against 10 mM HEPES, pH 7.0, 50 mM NaCl, 10% glycerol, 1 ug/mL antipain and leupeptin and 0.1 mM Pefabloc SC. The protein was frozen in dry ice/methanol and stored -70° C.
Test compounds were made into 10 mg/mL stock solutions in 100% dimethylsulfoxide (DMSO). Prior to experiment, stock solutions were diluted to 500 uM with 100% DMSO and then serially diluted to the desired concentration with HEPES buffer (30 mM HEPES pH 7.4).
For the enzyme reaction, 10 uL of each inhibitor (at various concentrations) were added to each well of a 96-well plate. To this was added 3 uL of enzyme (1:10 dilution in 10 mM HEPES, pH 7.4 for final conc. of 1:120). This was allowed to sit for 10 min on ice and was followed by the addition of 5 ul peptide (80 uM final conc.), 10 ul of 4×Buffer (Table A), 0.25 uL ^33 P-ATP and 12 uL H2 O. The reaction was allowed to run for 90 min at room temperature and was followed by spotting the entire volume on to precut P81 filter papers. The filter discs were washed 2× with 0.5% phosphoric acid and radioactivity was measured using a liquid scintillation counter. […]
The inhibition data for representative compounds of the invention are shown below in TABLE 1. […] The % inhibition of the test compound was determined for at least three different concentrations and the IC50 value was evaluated from the dose response curve. The % inhibition was evaluated with the following formula: […]
where CPM(drug) is in units of counts per minute and is a number expressing the amount of radiolabled ATP (γ-^33 P) incorporated onto the RR-SRC peptide substrate by the enzyme after 90 minutes at room temperature in the presence of test compound as measured by liquid scintillation counting. CPM(control) is in units of counts per minute and was a number expressing the amount of radiolabled ATP (γ-^33 P) incorporated into the RR-SRC peptide substrate by the enzyme after 90 minutes at room temperature in the absence of test compound as measured by liquid scintillation counting. The CPM values were corrected for the background counts produced by ATP in the absence of the enzymatic reaction.

[2] = molecular target: T2, Kinase insert Domain containing Receptor (KDR) (Homo sapiens, UniProt P35968); test: Inhibition of Kinase insert Domain containing Receptor (KDR; the catalytic domain of the VEGF receptor); assay type: biochemical; conditions: substrate E:Y 4:1, pH 7.2
T2 construct: KDR; the Catalytic Domain of the VEGF Receptor
T2 sequence (P35968 834-1162 limits assumed): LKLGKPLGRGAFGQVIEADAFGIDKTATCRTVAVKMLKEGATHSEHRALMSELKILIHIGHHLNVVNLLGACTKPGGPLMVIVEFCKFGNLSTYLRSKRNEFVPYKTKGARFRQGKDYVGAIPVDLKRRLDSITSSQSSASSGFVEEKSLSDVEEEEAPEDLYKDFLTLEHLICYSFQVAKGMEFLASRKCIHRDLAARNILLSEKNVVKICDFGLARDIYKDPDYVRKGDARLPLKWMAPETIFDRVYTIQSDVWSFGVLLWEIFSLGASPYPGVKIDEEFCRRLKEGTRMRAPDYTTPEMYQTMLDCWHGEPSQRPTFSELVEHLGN
Description: Inhibition of Kinase Insert Domain Containing Receptor (KDR; the Catalytic Domain of the VEGF Receptor)
In this standard pharmacological test procedure, KDR protein is mixed, in the presence or absence of a inhibitor compound, with a substrate peptide to be phosphorylated (a copolymer of glutamic acid and tyrosine, E:Y: 4:1) and other cofactors such as Mg^++ and sodium vanadate (a protein tyrosine phosphatase inhibitor) in an appropriate buffer to maintain pH (7.2). ATP and a radioactive tracer (either P^32 -or P^33 -labeled ATP) is then add to initiate phosphorylation. After incubation, the radioactive phosphate associated with the acid-insoluble fraction of the assay mixture is then quantified as reflection of substrate phosphorylation.

[3] = molecular target: Epithelial Cell Kinase (ECK) (Homo sapiens, UniProt P29317); test: Inhibition of Epithelial Cell Kinase (ECK); assay type: biochemical; conditions: biotinylated peptide substrate, pH 7.2
Chain of Epithelial Cell Kinase (ECK) (P29317 24-976): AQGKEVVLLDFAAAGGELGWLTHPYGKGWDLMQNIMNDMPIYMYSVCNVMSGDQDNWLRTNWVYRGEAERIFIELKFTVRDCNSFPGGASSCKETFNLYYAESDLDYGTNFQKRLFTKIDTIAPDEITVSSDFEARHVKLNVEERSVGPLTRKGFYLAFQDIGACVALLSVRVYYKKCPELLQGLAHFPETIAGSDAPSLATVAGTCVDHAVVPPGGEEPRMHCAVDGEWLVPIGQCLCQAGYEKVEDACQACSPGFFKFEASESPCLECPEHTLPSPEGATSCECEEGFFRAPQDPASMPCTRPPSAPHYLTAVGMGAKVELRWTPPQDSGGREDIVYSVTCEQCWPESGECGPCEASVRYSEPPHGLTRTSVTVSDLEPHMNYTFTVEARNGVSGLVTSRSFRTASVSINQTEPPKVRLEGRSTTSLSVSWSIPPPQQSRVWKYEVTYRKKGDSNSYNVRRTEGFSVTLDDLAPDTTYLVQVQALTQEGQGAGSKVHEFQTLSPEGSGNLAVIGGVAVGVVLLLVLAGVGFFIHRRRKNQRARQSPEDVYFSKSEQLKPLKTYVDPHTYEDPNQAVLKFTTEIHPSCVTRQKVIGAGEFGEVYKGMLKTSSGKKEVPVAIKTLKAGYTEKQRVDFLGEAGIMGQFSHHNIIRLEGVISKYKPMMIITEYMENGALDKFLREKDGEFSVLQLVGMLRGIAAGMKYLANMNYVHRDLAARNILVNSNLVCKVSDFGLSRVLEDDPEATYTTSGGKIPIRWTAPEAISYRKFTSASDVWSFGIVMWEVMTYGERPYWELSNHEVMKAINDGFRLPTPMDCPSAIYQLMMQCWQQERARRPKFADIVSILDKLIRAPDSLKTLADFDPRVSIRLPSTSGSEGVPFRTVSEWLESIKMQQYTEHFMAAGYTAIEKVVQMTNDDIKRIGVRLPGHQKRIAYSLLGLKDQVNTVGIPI
Experimental: In this standard pharmacological test procedure, a biotinylated peptide substrate is first immobilized on neutravidin-coated microtiter plates. The test drug, the Epithelial Cell Kinase (ECK), Mg^++, sodium vanadate (a protein tyrosine phosphatase inhibitor), and an appropriate buffer to maintain pH (7.2) are then added to the immobilized substrate-containing microtiter wells. ATP is then added to initiate phosphorylation. After incubation, the assay plates are washed with a suitable buffer leaving behind phosphorylated peptide which is exposed to horse radish peroxidase (HRP)-conjugated anti-phosphotyrosine monoclonal antibody. The antibody-treated plates are washed again and the HRP activity in individual wells is quantified as a reflection of degree of substrate phosphorylation.

[4] = molecular target: Mitogen Activated Protein Kinase (Mek-Erk); test: Mitogen Activated Protein Kinase (MAPK) assay, coupled Mek-Erk; assay type: biochemical, human; conditions: MBP or Myc peptide substrate, pH 7.4
Experimental: Mitogen Activated Protein Kinase (MAPK) Assay
To evaluate inhibitors of the MAP (mitogen activated protein) kinase a two component coupled standard pharmacological test procedure, which measures phosphorylation of a serine/threonine residue in an appropriate sequence in the substrate in the presence and absence of a putative inhibitor, was used. Recombinant human MEK 1 (MAPKK) was first used to activate recombinant human ERK2 (MAPK) and the activated MAPK (ERK) was incubated with substrate (MBP peptide or MYC peptide) in the presence of ATP, Mg^+2 and radiolabeled ^33 P ATP. The phosphorylated peptide was captured on a P 81 phosphocellulose filter (paper filter or embedded in microtiter plate) washed and counted by scintillation methods.
The peptide substrates used in the assay are MBP, peptide substrate ([…]), or synthetic Myc substrate, ([…]·5 TFA. The recombinant enzymes used were prepared as GST fusion proteins of human ERK 2 and human MEK 1. Inhibitor samples were prepared as 10×stocks in 10% DMSO and an appropriate aliquot was used to deliver either 10 ug/ml for a single point screening dose or 100, 10, 1, and 0.1 uM final concentration for a dose response curve. Final DMSO concentrations were less than or equal to 1%.
The reaction was run as follows in 50 mM Tris kinase buffer, pH 7.4 in a reaction volume of 50 ul. The appropriate volume of kinase buffer and inhibitor sample was added to the tube. Appropriate dilution of enzyme was delivered to give 2-5 ug recombinant MAPK (Erk ) per tube. The inhibitor was incubated with MAPK (Erk) for 30 min at 0 deg. C. Recombinant Mek (MAPKK) (0.5-2.5 ug) or fully activated Mek (0.05-0.1 units) was added to activate the Erk and incubated for 30 min at 30° C. Then substrate and gamma ^33 P ATP was were added to give a final concentration of 0.5-1 mM MBPP or 250-500 uM Myc; 0.2-0.5 uCi gamma P 33 ATP/tube; 50 μM ATP final concentration. Samples were incubated at 30° C. for 30 minutes and the reaction was stopped by adding 25 μl of ice cold 10% TCA. After samples were chilled on ice for 30 min, 20 μl of sample was transferred onto P 81 phosphocellulose filter paper or appropriate MTP with embedded P 81 filter. Filter papers or MTP were washed 2 times with a large volume of 1% acetic acid, then 2 times with water. The filters or MTP were briefly air dried before addition of scintillant and samples were counted in the appropriate scintillation counter set up for reading ^33 P isotope. Samples included a positive control (activated enzyme plus substrate); a no enzyme control; a no substrate control; samples with different concentrations of putative inhibitor; and samples with reference inhibitors (other active compounds or non-specific inhibitors such as staurosporine or K252 B).
The raw data was captured as cpm. Sample replicates were averaged and corrected for background count. Mean cpm data was tabulated by group and % inhibition by a test compound was calculated as (corrected cpm control-corrected. cpm sample/control)×100=% inhibition. […] The results obtained for representative compounds of this invention are listed in TABLE 2 where there may be separate entries for the same compound; this is an indication that the compound was evaluated more than one time.

3T3/c-erbb2 = test: Inhibition of cancer cell growth as measured by cell number, 3T3/c-erbb2; assay type: cell-based; conditions: 3T3/c-erbb2, 48 hours exposure
Experimental: (§1) Inhibition of Cancer Cell Growth as Measured by Cell Number […] […] After 48 hours exposure to test compounds, cells were fixed with trichloroacetic acid, and stained with Sulforhodamine B. After washing with trichloroacetic acid, bound dye was solubilized in 10 mM Tris base and optical density was determined using plate reader. Under conditions of the assay the optical density is proportional to the number of cells in the well. […] The test procedure is described in details by Philip Skehan et. al, J.Natl. Canc. Inst., 82, 1107-1112 (1990). […] Information about some of the cell lines used in these test procedures is available from the American Type Tissue Collection: Cell Lines and Hybridomas, 1994 Reference Guide, 8th Edition.

SW620 = test: Inhibition of cancer cell growth as measured by cell number, SW620; assay type: cell-based; conditions: Homo sapiens, SW-620, 48 h, SW620, 48 hours exposure
Experimental: as §1

SK-BR3 = test: Inhibition of cancer cell growth as measured by cell number, SK-BR3; assay type: cell-based; conditions: Homo sapiens, SK-BR-3, 48 h, SK-BR3, 48 hours exposure
Experimental: as §1

MDA-MB-435 = test: Inhibition of cancer cell growth as measured by cell number, MDA-MB-435; assay type: cell-based; conditions: Homo sapiens, MDA-MB-435, 48 h, MDA-MB-435, 48 hours exposure
Experimental: as §1

3T3 = test: Inhibition of cancer cell growth as measured by cell number, 3T3; assay type: cell-based; conditions: Mus musculus, NIH3T3; 3T3, 48 hours exposure
Experimental: as §1

A431 = test: Inhibition of cancer cell growth as measured by cell number, A431; assay type: cell-based; conditions: Homo sapiens, A-431, 48 h, A431, 48 hours exposure
Experimental: as §1

[5] = tested on: human colon carcinoma SW620; conditions: 3 mg/kg/dose IP days 1-20, Day 7
Experimental: In Vivo Inhibition of the Growth of Human Colon Carcinoma SW620
Human colon carcinoma SW620 cells (American Type Culture Collection, Rockville, Md. #CCL-227) were grown in vitro as described above. BALB/c nu/nu female mice (Charles River, Wilmington, Mass.) were used in this in vivo standard pharmacological test procedure. A unit of 7×10^6 cells were injected SC into mice. When tumors attained a mass of between 80 and 120 mg, the mice were randomized into treatment groups (day zero). Mice were treated IP once a day on days 1 through 20 post staging with doses of either 30, 10, 3 or 1 mg/kg/dose of the compound to be evaluated in 0.2% Klucel. Control animals received vehicle only. Tumor mass was determined every 7 days [(length×width^2)/2] for 28 days post staging. Relative tumor growth (Mean tumor mass on days 7, 14, 21, and 28 divided by the mean tumor mass on day zero) is determined for each treatment group. Statistical analysis (Student-t-test) of log relative tumor growth compares treated verses control group. A p-value (p≤0.05) indicates a statistically significant reduction in relative tumor growth of treated group compared to the vehicle control.

Structure (SMILES) | IC50 [1] | IC50 [2] | IC50 [3] | IC50 [4] | IC50 (3T3/c-erbb2) | also measured
CCOc1cc2ncc(C#N)c(Nc3ccc4cc[nH]c4c3)c2cc1OCC [Example 101, 6,7-Diethoxy-4-(1H-indol-6-ylamino)-quinoline-3-carbonitrile] | > 1 µM |  |  |  |  | 
CCOc1cc2ncc(C#N)c(Nc3ccc4c(c3)NCC4)c2cc1OCC [Example 96, 4-(2,3-Dihydro-1H-indol-6-ylamino)-6,7-diethoxy-quinoline-3-carbonitrile] | > 10 µM | 8.02 µM | > 53.5 µM |  |  | inhibition at 0.5 µM ([1]; read-out: % Inh @ 0.5 μM): 6%
CCOc1cc2ncc(C#N)c(Nc3ccc4cn[nH]c4c3)c2cc1OC [Example 115, 7-Ethoxy-4-(indazol-6-ylamino)-6-methoxy-quinoline-3-carbonitrile] | > 0.5 µM |  |  | 25 µM |  | 
CCOc1cc2ncc(C#N)c(Nc3ccc4c(c3)CCC4)c2cc1OCC [Example 108, 6,7-Diethoxy-4-(indan-5-ylamino)-quinoline-3-carbonitrile] |  |  |  |  | 0.198 µg/mL (≈ 0.53 µM) | 
CCOc1cc2ncc(C#N)c(Nc3ccc4c(c3)OCCO4)c2cc1OCC [Example 105, 4-(2,3-Dihydro-benzo[1,4]dioxin-6-ylamino)-6,7-diethoxy-quinoline-3-carbonitrile] |  | 76.6 µM | > 51.1 µM |  | 0.375 µg/mL (≈ 0.958 µM) | IC50 (SW620): 0.411 µg/mL (≈ 1.05 µM); IC50 (SK-BR3): 0.281 µg/mL (≈ 0.718 µM); IC50 (MDA-MB-435): 0.235 µg/mL (≈ 0.6 µM); IC50 (3T3): 0.853 µg/mL (≈ 2.18 µM); IC50 (A431): 0.27 µg/mL (≈ 0.69 µM)
CCOc1cc2ncc(C#N)c(Nc3ccc4c(c3)CCC4=O)c2cc1OCC [Example 110, 6,7-Diethoxy-4-(1-oxo-indan-5-ylamino)-quinoline-3-carbonitrile] |  | > 77.4 µM | 0.155 µM and 0.036 µM | > 100 µM and 50 µM | 0.0311 µg/mL (≈ 0.0803 µM) | IC50 (SW620): 0.0181 µg/mL (≈ 0.0467 µM); IC50 (SK-BR3): 0.0281 µg/mL (≈ 0.0725 µM); IC50 (MDA-MB-435): 0.028 µg/mL (≈ 0.0723 µM); IC50 (3T3): 0.0923 µg/mL (≈ 0.238 µM); IC50 (A431): 0.0244 µg/mL (≈ 0.063 µM)
CCOc1cc2ncc(C#N)c(Nc3ccc4c(c3)C(=O)NCC(=O)N4C)c2cc1OCC [Example 127, 6,7-Diethoxy-4-(1-methyl-2,5-dioxo-2,3,4,5-tetrahydro-1H-benzo[e][1,4]diazepin-7-ylamino)-quinoline-3-carbonitrile] | > 1 µM |  |  | > 100 µM |  | 
CCOc1cc2ncc(C#N)c(Nc3ccc4c(c3)C(=O)OC4)c2cc1OCC [Example 111, 6,7-Diethoxy-4-(3-oxo-1,3-dihydro-isobenzofuran-5-ylamino)-quinoline-3-carbonitrile] | > 1 µM |  |  | > 100 µM |  | 
CCOc1cc2ncc(C#N)c(Nc3ccc4cn[nH]c4c3)c2cc1OCC [Example 99, 6,7-Diethoxy-4-(1H-indazol-6-ylamino)-quinoline-3-carbonitrile] |  |  |  |  |  | Relative Tumor Growth Day 7 [5]: 3.80
CCOc1cc2ncc(C#N)c(Nc3ccc4c(c3)OCO4)c2cc1OCC [Example 98, 4-(Benzo[1,3]dioxol-5-ylamino)-6,7-diethoxy-quinoline-3-carbonitrile] |  | 2.65 µM |  |  |  | 
